Data: patent US4241069A, “3-Methylene flavanones and 3-methylene chromanones” (Miles Laboratories, Inc., priority 1979, dated 1980)
≈ marks a conversion by molar mass, not a printed value.

Assays:
S. aureus NRRL B2747 [1] = assay: MIC, agar incorporation method; assay type: cell-based, Staphylococcus aureus; conditions: Staphylococcus aureus, NRRLB2747, 32° C., 24 hours, read-out: Minimal Inhibitory Concentration
Protocol: (§1) The compounds of the present invention were tested for their ability to inhibit the growth of microorganisms by in vitro tests. Generally the in vitro tests involve growing representative microorganisms under conditions favorable to such growth and measuring the effectiveness of one or more compounds in inhibiting or destroying the growth of the microorganisms. The microorganisms used include representative bacteria, fungi and yeasts.
(§2) A representative selection of the test microorganisms were cultured in a nutrient broth, such as, for example, Eugon, commercially available from Difco Laboratories, Detroit, Michigan. Bacteria and Candida species were cultured for 24 hours at 32°-37° C. and fungi were cultured for approximately one week at 32° C. Inocula were prepared by suspending the growth or spores from a slant culture in sufficient sterile normal (0.9 percent) saline or Eugon broth, to yield cell or spore concentrations of 1,000,000 cells per milliliter. Anaerobic bacteria were cultured for 48-72 hours at 32°-37° C. in a thioglycollate containing medium, for example, Fluid Thioglycollate medium or NIH thioglycollate broth, commercially available from Difco Laboratories.
(§3) The compounds of the present invention were tested for activity against bacteria, yeasts and fungi by the agar incorporation method described below. MA 1347, 3-(dimethylaminomethyl)flavanone (disclosed in U.S. Pat. No. 3,753,985) was used as a comparative standard along with controls for each solvent system used.
(§4) A series of agar plates containing two-fold dilutions of each compound to be tested, ranging in concentration from 100 to 3.1 mcg/ml of agar medium was prepared. Aliquots of each concentration (100, 50, 25, 12.5, 6.2, and 3.1) prepared in N,N-dimethylformamide or 50 percent aqueous DMF were added to liquid Eugon agar at 48° C. (one part test solution to 100 parts agar). In some cases, tests with further dilutions to 0.125 mcg/ml were conducted. The agar medium, containing the 3-methylene flavanone or chromanone compound to be tested, was then dispensed into petri dishes and allowed to solidify. The solidified plates were kept overnight at room temperatures to dry the surface of the agar.
(§5) The agar plates were then inoculated with a drop of the standardized cell or spore suspension. Inoculated plates were incubated at 32° C. The inhibition end-point or minimum inhibitory concentration (MIC) shown in Table D represent the lowest concentration of test compound which inhibited the growth of the microorganism. Visual determination of growth inhibition was used. Bacteria and yeast end-points were determined after 24 hours incubation; molds, dermatophytes and anaerobes after 48-72 hours incubation. MIC values shown as ranges represent the extremes found in repeat assays. Virtually all such values were written plus or minus one dilution, the accepted variation of a two-fold dilution assay.

[2] = tested on: Clostridium acetobutylicum ATCC 824; assay: MIC, agar incorporation method, anaerobic; assay type: cell-based; conditions: ATCC824, 48 h, 48 hours at 35° C., GasPak Anaerobic Jar, read-out: Minimal Inhibitory Concentration
Protocol: as §1, §2, §3, §4, §5
(§6) *Anaerobic: 48 hours incubation at 35° C. GasPak Anaerobic Jar

[3] = tested on: Propionobacterium acnes ATCC 6919; assay: MIC, agar incorporation method, anaerobic; assay type: cell-based; conditions: 48 hours at 35° C., GasPak Anaerobic Jar, read-out: Minimal Inhibitory Concentration
Protocol: as §1, §2, §3, §4, §5, §6

[4] = tested on: Trichophyton mentagrophytes ATCC 4807; assay: MIC, agar incorporation method; assay type: cell-based; conditions: ATCC4807, 32° C., 48-72 hours, read-out: Minimal Inhibitory Concentration
Protocol: as §1, §2, §3, §4, §5

A. fumigatus NRRL 165 = assay: MIC, agar incorporation method; assay type: cell-based; conditions: Aspergillus fumigatus, NRRL165, 32° C., 48-72 hours, read-out: Minimal Inhibitory Concentration
Protocol: as §1, §2, §3, §4, §5

C. albicans NRRL Y-477 = assay: MIC, agar incorporation method; assay type: cell-based; conditions: Candida albicans, NRRLY477, 32° C., 24 hours, read-out: Minimal Inhibitory Concentration
Protocol: as §1, §2, §3, §4, §5

[5] = tested on: Aspergillus niger ATCC 16404; assay: MIC, agar incorporation method; assay type: cell-based; conditions: ATCC16404, 32° C., 48-72 hours, read-out: Minimal Inhibitory Concentration
Protocol: as §1, §2, §3, §4, §5

[6] = tested on: Escherichia coli ATCC 8739; assay: MIC, agar incorporation method; assay type: cell-based; conditions: ATCC8739, 32° C., 24 hours, read-out: Minimal Inhibitory Concentration
Protocol: as §1, §2, §3, §4, §5

[7] = tested on: Streptococcus faecalis ATCC 10541; assay: MIC, agar incorporation method; assay type: cell-based; conditions: Enterococcus faecalis, ATCC10541; 32° C., 24 hours; read-out: Minimal Inhibitory Concentration
Protocol: as §1, §2, §3, §4, §5

[8] = tested on: Pseudomonas aeruginosa ATCC 14502; assay: MIC, agar incorporation method; assay type: cell-based; conditions: ATCC14502, 32° C., 24 hours, read-out: Minimal Inhibitory Concentration
Protocol: as §1, §2, §3, §4, §5

C. tropicalis NRRL Y1410 = assay: MIC, agar incorporation method; assay type: cell-based; conditions: Candida tropicalis, NRRLY1410; 32° C., 24 hours; read-out: Minimal Inhibitory Concentration
Protocol: as §1, §2, §3, §4, §5

[9] = tested on: Microsporum gypseum ATCC 14683; assay: MIC, agar incorporation method; assay type: cell-based; conditions: Nannizzia gypsea, ATCC14683, 32° C., 48-72 hours; read-out: Minimal Inhibitory Concentration
Protocol: as §1, §2, §3, §4, §5

T. mentagrophytes CDC = assay: MIC, agar incorporation method; assay type: cell-based; conditions: Trichophyton mentagrophytes, 32° C., 48-72 hours, read-out: Minimal Inhibitory Concentration
Protocol: as §1, §2, §3, §4, §5

[10] = tested on: Sarcina subflava ATCC 7468; assay: MIC, agar incorporation method; assay type: cell-based; conditions: ATCC7468, 32° C., 24 hours, read-out: Minimal Inhibitory Concentration
Protocol: as §1, §2, §3, §4, §5

[11] = tested on: Proteus vulgaris NRRL B123; assay: MIC, agar incorporation method; assay type: cell-based; conditions: NRRLB123, 32° C., 24 hours, read-out: Minimal Inhibitory Concentration
Protocol: as §1, §2, §3, §4, §5

T. mentagrophytes TM-2 = assay: MIC, agar incorporation method; assay type: cell-based; conditions: Trichophyton mentagrophytes, TM2, 32° C., 48-72 hours, read-out: Minimal Inhibitory Concentration
Protocol: as §1, §2, §3, §4, §5

T. rubrum ATCC 10218 = assay: MIC, agar incorporation method; assay type: cell-based; conditions: Trichophyton rubrum, ATCC10218; 32° C., 48-72 hours; read-out: Minimal Inhibitory Concentration
Protocol: as §1, §2, §3, §4, §5

C. guillermondii VM 42 = assay: MIC, agar incorporation method; assay type: cell-based; conditions: 32° C., 24 hours; read-out: Minimal Inhibitory Concentration
Protocol: as §1, §2, §3, §4, §5

A. fumigatus NRRL 163 = assay: MIC, agar incorporation method; assay type: cell-based; conditions: Aspergillus fumigatus, NRRL163, NRRL 163; 32° C., 48-72 hours; read-out: Minimal Inhibitory Concentration
Protocol: as §1, §2, §3, §4, §5

C. krusei VM 29B = assay: MIC, agar incorporation method; assay type: cell-based; conditions: Pichia kudriavzevii, VM29B; 32° C., 24 hours; read-out: Minimal Inhibitory Concentration
Protocol: as §1, §2, §3, §4, §5

[12] = tested on: Staphylococcus aureus ATCC 6538; assay: MIC, agar incorporation method; assay type: cell-based; conditions: Staphylococcus aureus, ATCC6538; S. aureus ATCC 6538; 32° C., 24 hours; read-out: Minimal Inhibitory Concentration
Protocol: as §1, §2, §3, §4, §5

[13] = tested on: Candida albicans ATCC 10231; assay: MIC, agar incorporation method; assay type: cell-based; conditions: ATCC10231, C. albicans ATCC 10231, 32° C., 24 hours, read-out: Minimal Inhibitory Concentration
Protocol: as §1, §2, §3, §4, §5

[14] = tested on: Clostridium sporogenes ATCC 11437; assay: MIC, agar incorporation method, anaerobic; assay type: cell-based; conditions: ATCC11437, 48 hours at 35° C., GasPak Anaerobic Jar, read-out: Minimal Inhibitory Concentration
Protocol: as §1, §2, §3, §4, §5, §6

[15] = tested on: Bacteriodides fragilis ATCC 8482; assay: MIC, agar incorporation method, anaerobic; assay type: cell-based; conditions: 48 hours at 35° C., GasPak Anaerobic Jar, read-out: Minimal Inhibitory Concentration
Protocol: as §1, §2, §3, §4, §5, §6

S. aureus NRRL B2747 [16] = assay: MIC, agar incorporation method, anaerobic; assay type: cell-based; conditions: Staphylococcus aureus, NRRLB2747, 48 hours at 35° C., GasPak Anaerobic Jar, read-out: Minimal Inhibitory Concentration
Protocol: as §1, §2, §3, §4, §5, §6

T. tonsurans ATCC 10217 = assay: MIC, agar incorporation method; assay type: cell-based; conditions: Trichophyton tonsurans, ATCC10217; 32° C., 48-72 hours; read-out: Minimal Inhibitory Concentration
Protocol: as §1, §2, §3, §4, §5

SMILES: C=C1C(=O)c2ccccc2OC1c1ccc([N+](=O)[O-])cc1 (stereo not drawn) [Ex. 10, 4'-nitro-3-methylene flavanone]
- MIC (S. aureus NRRL B2747 [1]): 6.2 µg/mL (≈ 22 µM)
- MIC [2]: ≤ 100 µg/mL
- MIC [3]: ≤ 100 µg/mL
- MIC [4]: 6.2 µg/mL (≈ 22 µM)
- MIC (A. fumigatus NRRL 165): 100 µg/mL (≈ 356 µM)
- MIC (C. albicans NRRL Y-477): 25 µg/mL (≈ 88.9 µM)
- MIC [5]: 50 µg/mL (≈ 178 µM)
- MIC [6]: > 100 µg/mL
- MIC [7]: 50 µg/mL (≈ 178 µM)
- MIC [8]: > 100 µg/mL
- MIC (C. tropicalis NRRL Y1410): 50 µg/mL (≈ 178 µM)
- MIC [9]: 6.2 µg/mL (≈ 22 µM)
- MIC (T. mentagrophytes CDC): 6.2 µg/mL (≈ 22 µM)
- MIC [10]: 12.5 µg/mL (≈ 44.4 µM)
- MIC [11]: > 100 µg/mL
- MIC (T. mentagrophytes TM-2): 6.2 µg/mL (≈ 22 µM)
- MIC (T. rubrum ATCC 10218): ≤ 3.1 µg/mL
- MIC (C. guillermondii VM 42): 50 µg/mL (≈ 178 µM)
- MIC (A. fumigatus NRRL 163): 12.5 µg/mL (≈ 44.4 µM)
- MIC (C. krusei VM 29B): 25 µg/mL (≈ 88.9 µM)
- MIC [12]: ≤ 3.1 µg/mL
- MIC [13]: 25 µg/mL (≈ 88.9 µM)

SMILES: C=C1C(=O)c2ccccc2OC1(c1ccccc1)c1cccs1 (stereo not drawn) [Ex. 21, 3-Methylene-2-(2-thienyl) flavanone]
- MIC (S. aureus NRRL B2747 [1]): 0.5 µg/mL (≈ 1.57 µM)
- MIC [14]: 0.5 µg/mL (≈ 1.57 µM)
- MIC [3]: 1 µg/mL (≈ 3.14 µM)
- MIC [15]: 0.25 µg/mL (≈ 0.785 µM)
- MIC (S. aureus NRRL B2747 [16]): 1.56 µg/mL (≈ 4.9 µM)
- MIC [4]: 12.5 µg/mL (≈ 39.3 µM)
- MIC (T. tonsurans ATCC 10217): 6.2 µg/mL (≈ 19.5 µM)
- MIC (C. albicans NRRL Y-477): > 100 µg/mL
- MIC [5]: > 100 µg/mL
- MIC [6]: > 100 µg/mL
- MIC [7]: 1 µg/mL (≈ 3.14 µM)
- MIC [8]: > 100 µg/mL
- MIC (C. tropicalis NRRL Y1410): > 100 µg/mL
- MIC [9]: 6.2 µg/mL (≈ 19.5 µM)
- MIC (T. mentagrophytes CDC): 12.5 µg/mL (≈ 39.3 µM)
- MIC [10]: 1.56 µg/mL (≈ 4.9 µM)
- MIC (T. mentagrophytes TM-2): 12.5 µg/mL (≈ 39.3 µM)
- MIC (C. guillermondii VM 42): > 100 µg/mL
- MIC (A. fumigatus NRRL 163): 100 µg/mL (≈ 314 µM)
- MIC (C. krusei VM 29B): > 100 µg/mL
- MIC [12]: 0.5 µg/mL (≈ 1.57 µM)
- MIC [13]: > 100 µg/mL

SMILES: C=C1C(=O)c2ccccc2OC1(c1ccccc1)c1ccncc1 (stereo not drawn) [Ex. 22, 3-Methylene-2-(4-pyridyl) flavanone]
- MIC (S. aureus NRRL B2747 [1]): 0.78 µg/mL (≈ 2.49 µM)
- MIC [14]: 0.5 µg/mL (≈ 1.6 µM)
- MIC [3]: 1 µg/mL (≈ 3.19 µM)
- MIC [15]: 0.25 µg/mL (≈ 0.798 µM)
- MIC (S. aureus NRRL B2747 [16]): 1 µg/mL (≈ 3.19 µM)
- MIC [4]: 12.5 µg/mL (≈ 39.9 µM)
- MIC (T. tonsurans ATCC 10217): 6.2 µg/mL (≈ 19.8 µM)
- MIC (C. albicans NRRL Y-477): 100 µg/mL (≈ 319 µM)
- MIC [5]: > 100 µg/mL
- MIC [6]: > 100 µg/mL
- MIC [7]: 3.1 µg/mL (≈ 9.89 µM)
- MIC [8]: > 100 µg/mL
- MIC (C. tropicalis NRRL Y1410): > 100 µg/mL
- MIC [9]: 12.5 µg/mL (≈ 39.9 µM)
- MIC (T. mentagrophytes CDC): 25 µg/mL (≈ 79.8 µM)
- MIC [10]: 3.1 µg/mL (≈ 9.89 µM)
- MIC (T. mentagrophytes TM-2): 12.5 µg/mL (≈ 39.9 µM)
- MIC (C. guillermondii VM 42): > 100 µg/mL
- MIC (A. fumigatus NRRL 163): 25 µg/mL (≈ 79.8 µM)
- MIC (C. krusei VM 29B): 100 µg/mL (≈ 319 µM)
- MIC [12]: 0.78 µg/mL (≈ 2.49 µM)
- MIC [13]: 100 µg/mL (≈ 319 µM)
